The values that follow come from PubChem BioAssay AID504702 (Southern Research Specialized Biocontainment Screening …, 2011).

Experiment [1] is described as follows: M. tuberculosis growth inhibition with meropenem, dose response, H37Rv, set 2 (AID 504702).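 Further: growth read by Alamar Blue after 7 days plus overnight incubation.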 As to conditions: M. tuberculosis H37Rv with meropenem, growth inhibition; at 25 µM (top of the series).
For experiment [2], the system named is M. tuberculosis H37Rv with meropenem, growth inhibition. Described as above. The note with it: for IC90: measured here: IC90 growth with meropenem.

The structures appear in SMILES notation. “And” between values parts separate entries of the source, which are not always exact repeats. Equal values may be shown once. The source made the active and inactive calls. How the calls were made is not given here.

For `CC(=O)Nc1ccc2nc(NC(=O)COc3ccccc3)sc2c1`, the growth inhibition in experiment [1] is -0.49% (inactive). Broadly, the IC90 is the point of the concentration-response curve where the effect stands at 90%. The compound `CCOc1ccc2[nH]cc(C(=O)OC)c2c1` showed an IC90 in experiment [2] of over 25 µM. For orientation: IC50 means the midpoint of a concentration-inhibition curve. For the compound `CCOc1ccc2c(c1)cc(C)n2-c1ccccc1`, in experiment [2], the half-inhibitory concentration (IC50) was 11500 nM and the 90% effect concentration (IC90) was over 25 µM.

`Cc1cccc(C)c1OCC(=O)Nc1nc2ccc(Cl)cc2s1`: in experiment [1], the growth inhibition is -2.26% (inactive). Turning to `O=C(Nc1ccccc1)Nc1csc2ccccc12`, in experiment [2], the half-inhibitory concentration (IC50) was 490 nM and 200 nM; the IC90 was over 25 µM. On to `COc1ccc2nc(NC(=O)COc3ccc(Cl)cc3)sc2c1`, for which the growth inhibition in experiment [1] is 0.35% (inactive). As for `CC(Oc1ccc(Cl)cc1)C(=O)Nc1nc2ccccc2s1` (configuration not stated), in experiment [1], the growth inhibition is -2.09% (inactive). Turning to `Cc1cc2cc(O)ccc2[nH]1`, the growth inhibition in experiment [1] is 1.86% (inactive).

On to `COC(=O)c1ccc2nc(NC(=O)COc3ccccc3)sc2c1`, for which, in experiment [1], the growth inhibition is 15.1% (inactive). Take `Cc1ccccc1OCC(=O)Nc1nnn(C)n1`: the growth inhibition in experiment [1] was 0.35% (inactive).

As to `Cc1ccc(OCC(=O)Nc2nnn(C)n2)c(C)c1`, the growth inhibition in experiment [1] is -3.74% (inactive). Turning to `COc1ccc2c(c1)c(C(C)=O)c(C)n2-c1ccccc1`, in experiment [2], the IC50 was 530 nM and 1300 nM; the IC90 is over 18.8 µM. In the case of `CCOc1ccc2nc(NC(=O)COc3ccc(Cl)c(C)c3)sc2c1`, the growth inhibition in experiment [1] is -5.37% (inactive). `O=C(CCS(=O)(=O)c1ccc(F)cc1)Nc1nnc(-c2cccs2)o1`: in experiment [2], the IC50 is 22400 nM and the IC90 was over 25 µM. As to `Cc1ccccc1OCC(=O)Nc1ccccc1N1CCCCC1`, in experiment [2], the half-inhibitory concentration (IC50) is 6130 nM and 8970 nM; the concentration for an effect of 90% (IC90) was over 25 µM. As to `O=C(Nc1nc2ccccc2[nH]1)c1ccc(Cl)c(Cl)c1`, in experiment [2], the IC50 is 810 nM and the concentration for an effect of 90% (IC90) was over 25 µM. On to `CC(=O)Nc1ccc2nc(NC(=O)Cc3ccccc3)sc2c1`, for which the growth inhibition in experiment [1] was -7.72% (inactive). On to `N/C(=N\c1nc2cc(Cl)ccc2o1)NC(=O)c1ccccc1`, for which, in experiment [1], the growth inhibition is -0.66% (inactive). As for `CCOc1ccc2nc(NC(=O)COc3ccc(OC)cc3)sc2c1`, the growth inhibition in experiment [1] was -8.22% (inactive). On the same count and under the same terms, for `N/C(=N\c1nc2ccccc2o1)NC(=O)COc1ccc2ccccc2c1` the value was -2.85% (inactive); for `COC(=O)c1c(C)[nH]c2ccccc12`, -4.94% (inactive).

In the case of `CCOc1ccc2c(c1)c(C(C)=O)c(C)n2Cc1ccco1`, in experiment [1], the growth inhibition is -2.87% (inactive).

For the compound `COc1ccc2nc(NC(=O)COc3c(C)cc(C)cc3C)sc2c1`, in experiment [1], the growth inhibition is -3.9% (inactive). On to `CCOc1ccc2nc(NC(=O)C3(c4ccccc4)CCCC3)sc2c1`, for which, in experiment [2], the IC50 is 1200 nM and the IC90 is 4.16 µM.

Turning to `CC(C)(C)c1ccc(OCC(=O)Nc2nc3ccccc3s2)cc1`, in experiment [1], the growth inhibition is -9.97% (inactive). As to `Oc1ccc2[nH]ccc2c1`, in experiment [1], the growth inhibition is 3.81% (inactive). As to `Cc1ccccc1C(=O)Nc1nc2ccccc2[nH]1`, in experiment [2], the IC50 was 8750 nM and the IC90 is over 25 µM. Take `Cc1ccc(OCC(=O)Nc2nc3ccc(F)cc3s2)cc1`: the growth inhibition in experiment [1] is -0.17% (inactive). As to `CC(=O)c1c(C)n(-c2ccccc2)c2ccc(OC(C)C)cc12`, the growth inhibition in experiment [1] was 8.61% (inactive). Turning to `CC(=O)c1c(C)n(-c2cccc(Cl)c2)c2ccc(O)cc12`, the growth inhibition in experiment [1] was -2.38% (inactive). In the case of `CCC(=O)N/C(N)=N/c1nc2ccccc2o1`, the growth inhibition in experiment [1] is -1.89% (inactive).

As to `Cc1cc2ccccc2n1-c1ccccc1`, the growth inhibition in experiment [1] was -0.06% (inactive).

On to `O=C(COC(=O)C1CC1)c1c[nH]c2ccccc12`, for which, in experiment [2], the 50% inhibitory concentration (IC50) is 250 nM and 640 nM; the concentration for an effect of 90% (IC90) is over 25 µM. `Cc1ccc(OCC(=O)Nc2nc3c(Cl)cccc3s2)cc1`: in experiment [1], the growth inhibition was -2.68% (inactive). Turning to `CCOc1ccc2nc(NC(=O)COc3ccc(F)cc3)sc2c1`, the growth inhibition in experiment [1] was -3.93% (inactive). Regarding `Cc1cccnc1NC(=S)NC(=O)c1cncc(Br)c1`, in experiment [2], the half-maximal inhibitory concentration (IC50) is 2710 nM and the concentration for an effect of 90% (IC90) was over 25 µM. Consider `COC(=O)c1c(C)[nH]c2ccc(F)cc12`, for which the growth inhibition in experiment [1] was -3.53% (inactive). For the compound `CCc1ccc2nc(/N=C(\N)NC(=O)c3ccccc3)nc(C)c2c1`, in experiment [2], the concentration for half-maximal inhibition (IC50) was 820 nM and the IC90 is over 25 µM. Turning to `Cc1cccc(C)c1OCC(=O)Nc1nc2ccccc2s1`, in experiment [1], the growth inhibition was -9.19% (inactive). The same measure, in the same setting: for `Cc1cc(C)c(OCC(=O)Nc2nc3ccccc3s2)c(Cl)c1` the value was -6.55% (inactive). In the case of `N/C(=N\c1nc2ccccc2o1)NC(=O)c1ccccc1Br`, in experiment [2], the half-inhibitory concentration (IC50) is 3040 nM and the 90% effect concentration (IC90) was over 25 µM. Take `O=C(OC(C(=O)Nc1ccc(Cl)cc1C(F)(F)F)c1ccccc1)C1=COCCO1` (configuration not stated): in experiment [2], the half-inhibitory concentration (IC50) is 3170 nM and the IC90 is over 25 µM. As to `Cc1cc2cc(Cl)ccc2[nH]1`, the growth inhibition in experiment [1] was 0.31% (inactive). On to `O=C(COc1ccc(Cl)cc1)Nc1nc2ccc(F)cc2s1`, for which the growth inhibition in experiment [1] was -1.17% (inactive). For the compound `CCOc1ccc2c(c1)c(C(C)=O)c(C)n2-c1ccccc1Cl`, in experiment [2], the concentration for half-maximal inhibition (IC50) is 13600 nM and the 90% effect concentration (IC90) is over 25 µM. Regarding `CCOc1ccc2[nH]c(C)cc2c1`, the growth inhibition in experiment [1] was -0.67% (inactive).

As for `OCCCc1cn(-c2ccccc2)c2ccccc12`, in experiment [2], the IC50 is 14200 nM and the IC90 is over 25 µM.
